The results in this text go back to a melting point compilation (Tetko et al.; mined from patent text by program, amines drawn as free bases though some values may be those of a salt).

Residues, ends and D or L forms follow the SMILES beside them. *: point of attachment. Boc = CC(C)(C)OC(=O)*; OBn = c1ccc(CO*)cc1; Bn = c1ccc(C*)cc1

Compound `Cc1c2c(c(C#N)c(=O)n1C)-c1ccccc1C2=O` came in with a melting point of 271 to 274 °C.

`C=C(C(=O)O)c1ccc2c(=O)c3ccccc3ccc2c1`: the melting point was in the range of 232 to 235 °C.

Turning to `CNC(C(C)C)C(c1ccccc1)c1ccccc1` (stereo not drawn), the melting point was 46 to 48 °C.

For `N#CNC(=S)Nc1ccc([N+](=O)[O-])cc1`, the melting point was over 250 °C.

`CC1CC(=O)Nc2ccc(Br)cc21` (stereo not drawn) yielded a melting point of 190 °C.

In turn, `CCc1cc(=O)oc2cc(O)cc(O)c12` displayed a melting point of 241 to 243 °C.

The compound `N=C1CC(=O)Oc2cc(OCC(O)COc3ccccc3)ccc21` (stereo not drawn) displayed a melting point of 213 to 214 °C.

As to `COCCC(=O)OCC(=O)C1(O)CCC2C3CC(C)C4=CC(=O)C=CC4(C)C3C(O)CC21C` (stereo not drawn), the melting point was determined as 230 °C.

`CC(=O)Nc1ccc2[nH]cc(CC#N)c2c1` showed a melting point of 172 to 175 °C.

Compound `COc1ccccc1OCCCOS(N)(=O)=O` returned a melting point of 80 to 83 °C.

Compound `CCN(CC)CCOc1ccc(Nc2ncc3c(n2)N(C)C(=O)N(c2ccc(Cl)cc2Cl)C3)cc1` yielded a melting point of 172 °C.

The compound `C=C(C)CONC(=O)c1nc(-c2ccc(Cl)c(OC)c2F)cc(N)c1Cl` gave a melting point of 147 to 149 °C.

Take `CC(C)(C)OC(=O)N1CCC(c2nc3cc(-c4ccc(S(C)(=O)=O)cc4F)cc(F)c3o2)CC1`: the melting point lay within 155 to 158 °C.

The compound `CCCc1ccc(S(=O)(=O)Nc2ccc3snc(NC(C)=O)c3c2)cc1` had a melting point of 254 to 255 °C.

`COC1=CC=C(CN2CCN(CCCC(=O)c3ccc(F)cc3)CC2)C(F)C1=NNS(=O)(=O)c1ccc(C)cc1` (stereo not drawn) returned a melting point of 66 to 67 °C.

`CC(=O)CS(=O)CCc1ccc2c(c1)OCO2` (stereo not drawn) showed a melting point of 82 to 84.5 °C.

The compound `COc1ccc2c(c1)C(N=Cc1ccc(O)c(OC)c1)CCO2` (stereo not drawn) gave a melting point of 136 to 139 °C.

`COc1cc(N2CCNCC2)cc(OC)c1OC` came in with a melting point of 73 to 77 °C.

The compound `COc1cc(Cl)c2[nH]c(=O)[nH]c(=O)c2c1OC` registered a melting point of 282 to 284 °C.

The compound `CCc1nn(C2CCCC2)c2cc(C(=O)NCCC(=O)NO)ccc12` came in with a melting point of 166 to 169 °C.

The compound `CN(C)C(=O)Nc1ccc(Oc2ccc3ccccc3c2)c(C(F)(F)F)c1` came in with a melting point of 210 to 211 °C.

In turn, `CC(C)CC(NC(=O)C(Cc1ccc(OCc2ccccc2)cc1)NC(=O)OC(C)(C)C)C(=O)NCC(=O)OCc1ccccc1` (stereo not drawn) (Boc-Tyr(Bn)-Leu-Gly-OBn; configuration not given here) yielded a melting point of 114 to 116 °C.

Turning to `O=C(O)C1Cc2c(c(Br)cc3c(=O)c4ccccc4oc23)O1` (stereo not drawn), the melting point lay within 283 to 286 °C.

In turn, `CCOC(=O)Cc1cnc(C(C)(C)C)nc1Cl` registered a melting point of 42 to 44 °C.

As to `NC(=O)c1ncccc1CCc1cccc(F)c1`, the melting point was in the range of 102 to 104 °C.

In turn, `Cc1nc(Oc2ccccc2)c2nc(C)n(CCNC(=O)OC(C)(C)C)c2c1C` yielded a melting point of 180 to 182 °C.

Consider `O=S(=O)(Oc1ccc2ccccc2c1-c1nnc(Cl)c2ccccc12)C(F)(F)F`, for which the melting point is 54 to 55 °C.

Compound `O=[N+]([O-])c1ccccc1OCCN1CCN(c2cc(Cl)nnc2Cl)CC1` gave a melting point of 125 to 126 °C.

As to `Cc1cccc(CN(Cc2cccc(C)n2)C(c2ccccn2)c2ccccn2)n1`, the melting point came to 168 °C.

Consider `O=c1c2c(c3cccnc3n1-c1ccccc1)OC(CO)C2` (stereo not drawn), for which the melting point was 267 to 268 °C.

Turning to `Cc1cc(C)c(C(=O)c2ccc(Cl)cc2)c(C)c1`, the melting point was 65.5 to 66.5 °C.

With `CC1CC(C)OP(=O)(Cc2ccc([N+](=O)[O-])cc2)O1` (stereo not drawn), the melting point fell in the range of 152 to 153 °C.

For `NC12CCCC(C1)C1CCC2C1` (stereo not drawn), the melting point was in the range of 111 to 113 °C.

Turning to `CCOC(=O)CN1CCN(C(C)(C)C=CC(=O)Nc2cc3c(Nc4ccc(F)c(Cl)c4)ncnc3cc2OCC2CC2)CC1`, the melting point was 165 to 167 °C.

The compound `CCOCCn1c(CN2CCN(CCNc3nc4cnccc4[nH]3)CC2)nc2cccnc21` had a melting point of 124 °C.

As to `CC(COC(=O)NC(=O)C(c1ccccc1)c1ccccc1)c1ccccc1` (racemic), the melting point was found to be 131 °C.

Regarding `O=C(N[C@H](Cc1ccc(C(F)(F)F)cc1)[C@@H](O)c1cccc(Cl)n1)c1ccc(F)c2ccccc12` (racemic), the melting point lay in the range of 225 to 226 °C.

As for `COC(=O)c1nc2n(n1)-c1cc(Cl)ccc1N(c1ccc(Cl)cc1Cl)C2`, the melting point was in the range of 264 to 266 °C.

`CC(C)c1cc(O)cc2cc(-c3ccc(O)cc3)oc12` had a melting point of 192 to 194 °C.

`COc1ccc(-c2ccc(C(C)=O)cc2[N+](=O)[O-])cc1` displayed a melting point of 124 to 126 °C.

Compound `CCCCCCOc1ccc(-c2cc(CBr)ccc2CBr)cc1` showed a melting point of 38.5 to 40.5 °C.

`C=CCOc1ccc(C(C)(C)C)cc1C(C(=O)O)c1ccccc1` (stereo not drawn) returned a melting point of 120 to 122 °C.

The compound `CN(C)S(=O)(=O)c1ccc2c(c1)CCC2=O` had a melting point of 142 °C.

`CCCc1ccc(-c2ccn([C@H](CC(=O)OCc3ccccc3)C(=O)N[C@H](C(=O)NC)C(C)(C)C)c2)cc1`: the melting point was 63 to 65 °C.

Compound `CC(C)(C)c1ccc(COc2ccc(CSc3ccc(OCC(=O)O)c4c3CCC4)cc2)cc1` gave a melting point of 152 to 153 °C.

For `Nc1cscc1NC(=S)Nc1c(Cl)csc1Cl`, the melting point lay in the range of 110 to 115 °C.

Consider `COC(=O)N=C1SCC(=O)N1c1c(-c2ccccc2)csc1NC(=O)CN(C)C`, for which the melting point was 124 to 126 °C.

Compound `CC#CN1CCN(C(=O)c2ccccc2)CC1` came in with a melting point of 94 to 95 °C.

In turn, `CCCCCS(=O)(=O)NC(=O)/C(=C/c1ccc(OCCOC)cc1Oc1ncc(Cl)cc1Cl)CC` came in with a melting point of 118 °C.

Take `COc1cc(Nc2c(C#N)cnc3cc(-c4cccc(CN5CCOCC5)c4)sc23)c(Cl)cc1Cl`: the melting point was in the range of 205 to 207 °C.

Compound `CN1CCCc2cc(Cc3cnc(N)nc3N)ccc21` returned a melting point of 190 to 191 °C.

`OC(CN1CCC(c2noc3cc(F)ccc23)CC1)CN1CCc2ccccc2C1` (stereo not drawn) came in with a melting point of 179 to 181 °C.

Compound `FC(F)(F)c1cc(-c2ncn(CCCN3CCOCC3)c2-c2ccncc2)cc(C(F)(F)F)c1` showed a melting point of 136 to 138 °C.

In the case of `O=C1C2=NCCCN2c2ccc(F)cc21`, the melting point was in the range of 150 to 152 °C.

For the compound `CCc1[nH]n(C2CCCC2)c2nc(-c3ccc(Cl)cc3O)nc(=O)c1-2`, the melting point was over 300 °C.

Regarding `CC(=O)OCc1cccc(-n2cccc2)c1Br`, the melting point was in the range of 84 to 86.5 °C.

Compound `CC(=NOCCOc1ccc(CC2SC(=O)NC2=O)cc1)c1ccc(-c2ccccc2)cn1` (stereo not drawn) had a melting point of 136 to 138 °C.

Compound `Cc1c(-c2ccccc2)cccc1-c1ccc2ccccc2c1` yielded a melting point of 106 to 107 °C.

Turning to `O=C1N(CC2CCCO2)c2cccc(Br)c2C12COc1cc3c(cc12)CCO3` (stereo not drawn), the melting point lay in the range of 137 to 141 °C.

For `CCCCc1nc(SCC)c(C(=O)O)n1Cc1ccc(-c2ccccc2C(=O)O)cc1`, the melting point turned out to be 156 °C.

Compound `COc1cccc(C(=O)NCC(=O)N2c3ccccc3N(Cc3ccccc3)C(=O)[C@H]3CCC[C@H]32)c1` (relative stereo) yielded a melting point of 160 to 161 °C.

On to `CCCCNC(=O)Nc1cccc(-c2ccnc3c(C(=O)c4cccs4)cnn23)c1`, for which the melting point lay in the range of 158 to 160 °C.

Take `NS(=O)(=O)c1ccccc1SCCF`: the melting point lay within 83 to 85 °C.

For the compound `NC(=O)Cc1cccc(Oc2ccccc2)c1`, the melting point was 115 to 117 °C.

`COc1cc(C=CC(=O)Nc2cnc3ccc(C)cc3c2-c2ccccc2Br)cc(OC)c1OC(C)=O` registered a melting point of 238 to 240 °C.

With `C=C(c1ccccc1)c1cccc(C(C)C(=O)OC)c1` (stereo not drawn), the melting point was in the range of 69 to 71 °C.

The compound `O=c1[nH]ncc(N2CCN(Cc3ccccc3)CC2)c1Cl` had a melting point of 173 to 175 °C.

For the compound `C=C(C)COc1cc(Cl)ccc1[N+](=O)[O-]`, the melting point was 47 to 49 °C.

In the case of `CN1C(=O)CC[C@]2(C)c3ccc(-c4ccc(NC(=O)C(C)(C)C)cc4)cc3CC[C@@H]12`, the melting point was over 265 °C.

With `CC(C)NCCNc1ccc2ncc(Br)n2n1`, the melting point is 87 to 88 °C.

In turn, `C=CCOC1C(OC2C(COCc3ccccc3)OC(OC)C(OCc3ccccc3)C2OCc2ccccc2)OC(CO)C(O)C1OCc1ccccc1` (stereo not drawn) came in with a melting point of 119 to 120 °C.

As to `CC(=O)NNc1ccnc2c(NC(=O)c3c(Cl)cccc3Cl)c(C)ccc12`, the melting point was over 250 °C.

For `CCc1[nH]n(C2CCCC2)c2nc(Cc3ccc([N+](=O)[O-])cc3)nc(=O)c1-2`, the melting point is 221 to 223 °C.

`C=C(C)C(=O)Nc1ccc(NC(=O)Nc2ccc(C#N)cc2)c(O)c1` showed a melting point of 247 to 249 °C.

Turning to `CCCc1nn(C)c2c(-c3ccc(SC)cc3)nc(-c3ccc(F)cc3)nc12`, the melting point lay in the range of 114 to 116 °C.

Turning to `OCCCc1cc(Cl)cc2nc(Cc3cccc(Cl)c3)oc12`, the melting point lay within 87 to 89 °C.

As for `Cc1cc2c(cc1-c1csc(C=O)c1)C(C)(C)CCC2(C)C`, the melting point was in the range of 144 to 146 °C.

`CCCCOCCOc1ccc(-c2cnc3c(c2)C=C(C(=O)O)CCCN3CCC)cc1`: the melting point fell in the range of 123 to 125 °C.

In turn, `O=C1Cc2cc3c(cc2CCN1)OCO3` returned a melting point of 236 to 237 °C.

Regarding `O=C(Cc1cc(Cl)cc(Cl)c1)NC1N=C(C2CC2)c2ccccc2N(CC(F)(F)F)C1=O` (single isomer, unassigned; (+)), the melting point lay within 152 to 153 °C.

Compound `CCOC(=O)c1nc[nH]c1F` showed a melting point of 153 to 154 °C.

Regarding `COc1cc(C(=O)O)ccc1Cn1cc(CCC(=O)N(C)C)c2ccc(CCC(=O)N(C)C)cc21`, the melting point lay in the range of 216 to 218 °C.

In turn, `CCCc1nc2c(N)nc3cccnc3c2n1CCCCN(OC)C(C)=O` had a melting point of 155 to 156 °C.

With `COc1cc(Cl)cc(Cl)c1C1=NC(C)(C)CO1`, the melting point came out at 45 °C.

The compound `CCCCCC(=O)NC[C@H]1CNC(=O)O1` returned a melting point of 124 °C.

In the case of `Cn1cc(O)c(=O)c2ccc(OCC(F)(F)F)cc21`, the melting point was found to be 151 °C.

As to `COc1c(Cl)ccc(-c2nc(C(=O)OC(C)C)c(Cl)c(N)c2F)c1F`, the melting point lay within 109 to 111 °C.

In the case of `O=S1(=O)N=CN(C2CCC2)c2cc(Cl)c(Cl)cc21`, the melting point fell in the range of 238 to 240 °C.
